# Experiment: Inhibition of ABCB1 in human K562/A02 cells assessed as potentiation of adriamycin-induced cytotoxicity by measuring compound concentration required for reduction of ADR IC50 after 48 hrs by MTT assay
row,Compound,EC50
1,O=C(Nc1ccc(N2CCOCC2)cc1)c1cccnc1NCc1ccncc1,329 nM
2,COc1cc2c(cc1OC)CN(CCc1ccc(NC(=O)c3cccnc3NCc3ccncc3)cc1)CC2,120 nM

# — BindingDB's records for doi:10.1021/acs.jmedchem.6b01879 (China Pharmaceutical University, 2017)
